# Data reported in US7323596B2, “Antimicrobial agents” (De Novo Pharmaceuticals Ltd., priority 2000, dated 2008).
# Columns and labels:
# Haemophilia influenza = assay: MIC by standard agar plate dilution method; format: cell-based
# Method: The susceptibilities of strains of bacteria to the compound of Example 1 were determined by a standard agar plate dilution method following recommendations in British Society for Antimicrobial Chemotherapy Working Party. 1991, “A guide to sensitivity testing British Society for Antimicrobial Chemotherapy, London, United Kingdom”. Briefly, Iso-Sensitest agar (pH 7.2: Oxoid, United Kingdom) is employed, supplemented with 5% horse blood (Oxoid) and 20 μg of NAD (Sigma) per ml are added to support growth of fastidious bacteria. The inoculum used is approximately 10^4 colony forming units of each isolate contained in a volume of 1 μl. Plates are incubated 18 to 24 hr in air, or for fastidious bacteria an atmosphere enriched with 4-6% carbon dioxide at 35° C. The MIC is determined as the lowest concentration of an Antimicrobial tested that inhibited growth of the inoculum, disregarding a single persisting colony or faint haze caused by the inoculation.
# E coli PDF (Ni) = E coli PDF (Ni) (Escherichia coli, UniProt P0A6K3); assay: inhibition of the PDF E. coli (Ni) enzyme; format: biochemical; details: Ni form of E. coli PDF enzyme
# Method: Examples 2-5 were prepared in a manner analogous to example 1. Also shown is there inhibition of the PDF E. coli(Ni) enzyme.
# Chain of E coli PDF (Ni) (P0A6K3 whole entry): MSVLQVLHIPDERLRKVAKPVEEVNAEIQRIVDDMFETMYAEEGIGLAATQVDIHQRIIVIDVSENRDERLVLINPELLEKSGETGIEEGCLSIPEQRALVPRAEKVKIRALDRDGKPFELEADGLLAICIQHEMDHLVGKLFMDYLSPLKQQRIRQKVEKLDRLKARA
SMILES,MIC (Haemophilia influenza) [mg/L],IC50 (E coli PDF (Ni)) [µM]
"CCCC[C@H](CN(O)C=O)NC(=O)Cc1cccc2ccccc12 [Example 1, N-{1R-[(Formyl-hydroxy-amino)-methyl]-pentyl}2-naphthalen-1-yl-acetamide]",0.5 to 2,
"CCCC[C@H](CN(O)C=O)NC(=O)c1cn(CC)c2cc3c(cc2c1=O)OCO3 [Example 2, 5-Ethyl-8-oxo-5,8-dihydro-[1,3]dioxolo[4,5]quinoline-7-carboxylic acid {1R-[(formyl-hydroxy-amino)-methyl]-pentyl}amide]",,0.03
"CCCC[C@H](CN(O)C=O)NC(=O)c1cn(C2CCCCC2)c2ccccc2c1=O [Example 3, 1-Cyclohexyl-4-oxo-1,4-dihydro-quinoline-3-carboxylic acid {1R[(formyl-hydroxy-amino)-methyl]-pentyl}-amide]",,0.06
"CCCC[C@H](CN(O)C=O)NC(=O)c1cn(CC)c2ccc(Cl)cc2c1=O [Example 4, 6-Chloro-1-ethyl-4-oxo-1,4-dihydro-quinoline-3-carboxylic acid {1R[(formyl-hydroxy-amino)-methyl]-pentyl}-amide]",,0.02
"CCCC[C@H](CN(O)C=O)NC(=O)c1coc2ccccc2c1=O [Example 5, 4-Oxo-4H-chromene-3-carboxylic acid {1R-[(formyl-hydroxy-amino)-methyl]-pentyl}amide]",,0.2
